Experiments:
Format in all cases: cell-based, human
[1] = tested on: CML-T1; experiment: OncoPanel cell proliferation assay, CML-T1; conditions: for Relative cell count (%) Mean: CML-T1
Experimental: (§1) Cells were grown in RPMI 1640, 10% FBS, 2 mM L-alanyl-L-glutamine, 1 mM Na pyruvate, or a special medium. Cells were seeded into 384-well plates and incubated in a humidified atmosphere of 5% CO2 at 37° C. Compounds were added the day following cell seeding. At the same time, a time zero untreated cell plate was generated. After a 3-day incubation period, cells were fixed and stained to allow fluorescence imaging of nuclei. Compounds (1 mM stock solutions) were serially diluted in half-log steps from the highest test concentration ([…]), and assayed over 10 concentrations with a maximum assay concentration of 0.1% DMSO. Automated fluorescence microscopy was carried out using a Molecular Devices ImageXpress Micro XL high-content imager, and images were collected with a 4× objective. 16-bit TIFF images were acquired and analyzed with MetaXpress 5.1.0.41 software.
(§2) Cell proliferation was measured by the fluorescence intensity of an incorporated nuclear dye. The output is referred to as the relative cell count, where the measured nuclear intensity is transformed to percent of control (POC) using the following formula: […]
(§3) Cellular response parameters were calculated using nonlinear regression to a sigmoidal single-site dose response model:
(§4) Where y is a response measured at concentration x, A and B are the lower and upper limits of the response, C is the concentration at the response midpoint (EC50), and D is the Hill Slope (Ref. 1).
(§5) EC50 is the test compound concentration at the curve inflection point or half the effective response (parameter C of the fitted curve solution). GI50 is the concentration needed to reduce the observed growth by half (midway between the curve maximum and the time zero value). “Cell Count Activity Area” is an estimate of the integrated area above the curve (Barretina, et al. The Cancer Cell Line Encyclopedia enables predictive modelling of anticancer drug sensitivity. Nature 483: 603-607). […] In rare instances, values <0 or >10 may be observed. […] Curve-fitting, calculations, and report generation was performed using a custom data reduction engine and MathIQ based software (AIM).

[2] = tested on: T24; experiment: OncoPanel cell proliferation assay, T24; conditions: for Relative cell count (%) Mean: T24
Experimental: as §1, §2, §3, §4, §5

[3] = tested on: G-402; experiment: OncoPanel cell proliferation assay, G-402; conditions: for Relative cell count (%) Mean: G-402
Experimental: as §1, §2, §3, §4, §5

[4] = tested on: RL95-2; experiment: OncoPanel cell proliferation assay, RL95-2; conditions: for Relative cell count (%) Mean: RL95-2
Experimental: as §1, §2, §3, §4, §5

[5] = tested on: DMS114; experiment: OncoPanel cell proliferation assay, DMS114; conditions: for Relative cell count (%) Mean: DMS114
Experimental: as §1, with “Cells” for “Cells were grown in RPMI 1640, 10% FBS, 2 mM L-alanyl-L-glutamine, 1 mM Na pyruvate, or a special medium. Cells”
as §2, §3, §4
GI50 is the concentration needed to reduce the observed growth by half (midway between the curve maximum and the time zero value). […] In rare instances, values <0 or >10 may be observed. […] Curve-fitting, calculations, and report generation was performed using a custom data reduction engine and MathIQ based software (AIM).

[6] = tested on: SNU-C2B; experiment: OncoPanel cell proliferation assay, SNU-C2B
Experimental: as §1, §2, §3, §4, §5

[7] = tested on: SW579; experiment: OncoPanel cell proliferation assay, SW579; conditions: Homo sapiens, 72 h; SW579, 3-day incubation; read-out: Cell Count EC50
Experimental: as §1, §2, §3, §4, §5

## CO[C@H]1C[C@@H]2CC[C@@H](C)[C@@](O)(O2)C(=O)C(=O)N2CCCC[C@H]2C(=O)O[C@H]([C@H](C)C[C@@H]2C[C@@H]3C[C@H]2C[C@H]3O)CC(=O)[C@H](C)/C=C(\C)[C@@H](O)[C@@H](OC)C(=O)[C@H](C)C[C@H](C)/C=C/C=C/C=C/1C [Formula I, 37R-hydroxynorbornylrapamycin]
[1]; CML-T1, scale 0-10
  Cell Count Activity Area: 4.54
[1]; 1.00E+00 microM
  Relative cell count (%) Mean: 36.5%
[1]; 1.00E−01 microM
  Relative cell count (%) Mean: 42.6%
[1]; 1.00E−02 microM
  Relative cell count (%) Mean: 46.7%
[1]; 1.00E−03 microM
  Relative cell count (%) Mean: 55.6%
[1]; 1.01E−04 microM
  Relative cell count (%) Mean: 83.6%
[1]; 3.16E−01 microM
  Relative cell count (%) Mean: 33.1%
[1]; 3.17E−02 microM
  Relative cell count (%) Mean: 42.3%
[1]; 3.17E−03 microM
  Relative cell count (%) Mean: 49.5%
[1]; 3.18E−04 microM
  Relative cell count (%) Mean: 65.3%
[1]; 3.18E−05 microM
  Relative cell count (%) Mean: 90.6%
[1]; Homo sapiens, 72 h, CML-T1, 3-day incubation, read-out: Cell Count EC50
  EC50: 0.317 nM
[1]; Homo sapiens, 72 h, CML-T1, 3-day incubation, read-out: Cell Count GI50
  GI50: 0.998 nM
[1]; Homo sapiens, 72 h, CML-T1, 3-day incubation, read-out: Cell Count IC50
  IC50: 2.51 nM
[2]; Homo sapiens, T-24, 72 h, T24, 3-day incubation, read-out: Cell Count EC50
  EC50: 0.102 nM
[2]; Homo sapiens, T-24, 72 h, T24, 3-day incubation, read-out: Cell Count GI50
  GI50: 0.475 nM
[2]; Homo sapiens, T-24, 72 h, T24, 3-day incubation, read-out: Cell Count IC50
  IC50: 0.905 nM
[2]; T24, scale 0-10
  Cell Count Activity Area: 4.92
[2]; 1.00E+00 microM
  Relative cell count (%) Mean: 38.7%
[2]; 1.00E−01 microM
  Relative cell count (%) Mean: 41.3%
[2]; 1.00E−02 microM
  Relative cell count (%) Mean: 43.9%
[2]; 1.00E−03 microM
  Relative cell count (%) Mean: 49.5%
[2]; 1.01E−04 microM
  Relative cell count (%) Mean: 68.7%
[2]; 3.16E−01 microM
  Relative cell count (%) Mean: 37.1%
[2]; 3.17E−02 microM
  Relative cell count (%) Mean: 42.0%
[2]; 3.17E−03 microM
  Relative cell count (%) Mean: 46.0%
[2]; 3.18E−04 microM
  Relative cell count (%) Mean: 57.0%
[2]; 3.18E−05 microM
  Relative cell count (%) Mean: 84.1%
[3]; G-402, scale 0-10
  Cell Count Activity Area: 4.95
[3]; 1.00E+00 microM
  Relative cell count (%) Mean: 31.5%
[3]; 1.00E−01 microM
  Relative cell count (%) Mean: 37.2%
[3]; 1.00E−02 microM
  Relative cell count (%) Mean: 41.4%
[3]; 1.00E−03 microM
  Relative cell count (%) Mean: 49.2%
[3]; 1.01E−04 microM
  Relative cell count (%) Mean: 70.9%
[3]; 3.16E−01 microM
  Relative cell count (%) Mean: 34.9%
[3]; 3.17E−02 microM
  Relative cell count (%) Mean: 46.6%
[3]; 3.17E−03 microM
  Relative cell count (%) Mean: 48.8%
[3]; 3.18E−04 microM
  Relative cell count (%) Mean: 54.9%
[3]; 3.18E−05 microM
  Relative cell count (%) Mean: 89.9%
[3]; Homo sapiens, 72 h, G-402, 3-day incubation, read-out: Cell Count EC50
  EC50: 0.133 nM
[3]; Homo sapiens, 72 h, G-402, 3-day incubation, read-out: Cell Count GI50
  GI50: 0.332 nM
[3]; Homo sapiens, 72 h, G-402, 3-day incubation, read-out: Cell Count IC50
  IC50: 0.956 nM
[4]; Homo sapiens, 72 h, RL95-2, 3-day incubation, read-out: Cell Count EC50
  EC50: 0.15 nM
[4]; Homo sapiens, 72 h, RL95-2, 3-day incubation, read-out: Cell Count GI50
  GI50: 0.22 nM
[4]; Homo sapiens, 72 h, RL95-2, 3-day incubation, read-out: Cell Count IC50
  IC50: 10.9 nM
[4]; RL95-2, scale 0-10
  Cell Count Activity Area: 4.12
[4]; 1.00E+00 microM
  Relative cell count (%) Mean: 47.2%
[4]; 1.00E−01 microM
  Relative cell count (%) Mean: 50.6%
[4]; 1.00E−02 microM
  Relative cell count (%) Mean: 52.2%
[4]; 1.00E−03 microM
  Relative cell count (%) Mean: 59.5%
[4]; 1.01E−04 microM
  Relative cell count (%) Mean: 78.3%
[4]; 3.16E−01 microM
  Relative cell count (%) Mean: 45.6%
[4]; 3.17E−02 microM
  Relative cell count (%) Mean: 48.5%
[4]; 3.17E−03 microM
  Relative cell count (%) Mean: 52.9%
[4]; 3.18E−04 microM
  Relative cell count (%) Mean: 64.0%
[4]; 3.18E−05 microM
  Relative cell count (%) Mean: 89.3%
[5]; DMS114, scale 0-10
  Cell Count Activity Area: 4.35
[5]; 1.00E+00 microM
  Relative cell count (%) Mean: 39.3%
[5]; 1.00E−01 microM
  Relative cell count (%) Mean: 44.1%
[5]; 1.00E−02 microM
  Relative cell count (%) Mean: 50.7%
[5]; 1.00E−03 microM
  Relative cell count (%) Mean: 57.7%
[5]; 1.01E−04 microM
  Relative cell count (%) Mean: 77.8%
[5]; 3.16E−01 microM
  Relative cell count (%) Mean: 41.4%
[5]; 3.17E−02 microM
  Relative cell count (%) Mean: 44.7%
[5]; 3.17E−03 microM
  Relative cell count (%) Mean: 51.7%
[5]; 3.18E−04 microM
  Relative cell count (%) Mean: 67.2%
[5]; 3.18E−05 microM
  Relative cell count (%) Mean: 90.1%
[5]; Homo sapiens, DMS-114, 72 h, DMS114, 3-day incubation, read-out: Cell Count EC50
  EC50: 0.251 nM
[5]; Homo sapiens, DMS-114, 72 h, DMS114, 3-day incubation, read-out: Cell Count GI50
  GI50: 0.0822 nM
[5]; Homo sapiens, DMS-114, 72 h, DMS114, 3-day incubation, read-out: Cell Count IC50
  IC50: 4.4 nM
[6]; 1.00E+00 microM
  Relative cell count (%) Mean: 58.7%
[6]; 1.00E−01 microM
  Relative cell count (%) Mean: 65.6%
[6]; 1.00E−02 microM
  Relative cell count (%) Mean: 68.6%
[6]; 1.00E−03 microM
  Relative cell count (%) Mean: 73.7%
[6]; 1.01E−04 microM
  Relative cell count (%) Mean: 89.1%
[6]; 3.16E−01 microM
  Relative cell count (%) Mean: 55.1%
[6]; 3.17E−02 microM
  Relative cell count (%) Mean: 63.2%
[6]; 3.17E−03 microM
  Relative cell count (%) Mean: 71.6%
[6]; 3.18E−04 microM
  Relative cell count (%) Mean: 79.6%
[6]; 3.18E−05 microM
  Relative cell count (%) Mean: 83.2%
[6]; Homo sapiens, 72 h, 3-day incubation, read-out: Cell Count EC50
  EC50: 2.07 nM
[6]; Homo sapiens, 72 h, 3-day incubation, read-out: Cell Count GI50
  GI50: 24.1 nM
[6]; Homo sapiens, 72 h, 3-day incubation, read-out: Cell Count IC50
  IC50: > 1000 nM
[6]; scale 0-10
  Cell Count Activity Area: 2.30
[7]
  EC50: 0.0616 nM
